# Marks after values point to notes of the source that are not given here.
# How the values were obtained:
# hCB1Rs [1] = biological target: T1, hCB1Rs (Homo sapiens, UniProt P21554); assay: biochemical; conditions: read-out: EMAX, [^35S]GTPγS binding (maximal G-protein activation)
# T1 construct: host or cells: CHO-K1 (CHO-hCB1)
# hCB1Rs [2] = biological target: T1, hCB1Rs; assay: cell-based; assay type: cell-based
# hCB1Rs [3] = biological target: T1, hCB1Rs; assay type: cell-based
# T1 sequence (P21554 whole entry): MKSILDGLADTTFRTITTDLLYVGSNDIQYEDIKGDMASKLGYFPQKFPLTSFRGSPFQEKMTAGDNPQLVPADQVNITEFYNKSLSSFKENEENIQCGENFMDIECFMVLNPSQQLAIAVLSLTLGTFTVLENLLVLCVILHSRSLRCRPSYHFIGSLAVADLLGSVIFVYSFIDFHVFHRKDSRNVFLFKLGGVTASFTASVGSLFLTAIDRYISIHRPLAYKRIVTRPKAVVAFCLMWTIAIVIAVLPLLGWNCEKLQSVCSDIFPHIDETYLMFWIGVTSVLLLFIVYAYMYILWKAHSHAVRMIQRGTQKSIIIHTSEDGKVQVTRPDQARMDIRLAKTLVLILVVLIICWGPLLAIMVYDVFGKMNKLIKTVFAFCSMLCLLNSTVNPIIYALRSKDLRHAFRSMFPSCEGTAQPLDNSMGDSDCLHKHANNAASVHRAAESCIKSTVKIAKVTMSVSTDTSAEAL
structure (smiles),measurement,setting,value
"CCCCCCC(C)(C)c1ccc([C@@H]2C[C@H](O)CC[C@H]2CCCO)c(O)c1 [CP-55,940, reference compound]",Emax,hCB1Rs [1],64 ± 3.8%
same,"IMAX, cAMP accumulation (maximal adenylyl cyclase inhibition)",hCB1Rs [2],86.7 ± 6.4^a %
same,"Efficacy (Imax) of CP-55,940 to inhibit adenylyl cyclase",hCB1Rs [3],86.7 ± 6.4%
